pIC50: −log10 of the molar value. One block for each molecule: values may come before it.
How the values were obtained:
SW480 cells = assay: Caveolin-1 expression (Western blot) in SW480 cells; type: cell-based, human; conditions: SW480, 72 hr
Description: (§1) SW480, HT-29, HCT-15 and Panc-28 (3×10^5) colon cancer cells were seeded in 6-well tissue culture plates in DMEM/Ham's F-12 medium containing 2.5% charcoal-stripped FBS. Protein is extracted from the cells treated either with vehicle or indicated compounds suspended for 24 hr except for caveolin-1 protein which was done for 72 hr. Samples were extracted in high salt buffer [50 mmol/L HEPES, 500 mmol/L NaCl, 1.5 mmol/L MgCl2, 1 mmol/L EGTA, 10% glycerol, and 1% Triton X-100 (pH 7.5), and 5 μL/mL protease inhibitor cocktail (Sigma-Aldrich)]. Samples were incubated at 100° C. for 2 min, separated on either 10% or 12% SDS-PAGE gels and then transferred to polyvinylidene difluoride membrane (PVDF; Bio-Rad, Hercules, Calif.). The PVDF membrane was blocked in 5% TBST-Blotto (10 mM Tris HCl, 150 mM NaCl, pH 8.0, 0.05% Triton X-100, and 5% nonfat dry milk) for about 30 min and was then incubated in fresh 5% TBST-Blotto with 1:1000 for caveolin-1 (Santa Cruz Biotechnology, Santa Cruz, Calif.), 1:1000 for p21 (BD Pharmingen, Frank lakes, NJ) and 1:10000 for β-actin (Sigma) primary antibody overnight with gentle shaking at 4° C. After washing with TBST for 10 min, the membrane was incubated with respective secondary antibody (1:5000) (Santa cruz, Calif.) in 5% TBST-Blotto for 3 hr. The membrane is then washed with TBST for 10 min, incubated with chemiluminiscence reagent from Perkin Elmer for one min and then exposed to Kodak X-OMAT AR autoradiography film (Eastman Kodak, Rochester, N.Y.).

HT-29 cells = assay: Caveolin-1 expression (Western blot) in HT-29 cells; type: cell-based, human; conditions: for caveolin-1 induction: HT-29, 72 hr; for effect of T007 on induced caveolin-1 response: HT-29, cotreatment with T007
Description: as §1

p21 promoter = assay: Chromatin immunoprecipitation (ChIP) assay, p21 promoter, Panc-28 cells; type: cell-based, human; conditions: 5 μM, 1 or 2 hr
Description: Panc-28 cells were treated with the different compounds as indicated for 24 hr and whole cell lysates were obtained and analyzed by immunoblots. […] Cells were transfected with the various constructs, treated with DMSO, BA, CN-BA, CN-BA-Me alone or in combination with T007, and luciferase activity determined. Results of all transactivation studies in this Figure are presented as means±SE for at least three separate determinations for each treatment group. Significant (p<0.05) induction compared to solvent (DMSO) control (*) and inhibition by cotreatment with T007 (**) are indicated. FIGS. 10D-10F show chromatin immunoprecipitation assays. Primers designed for the proximal region of the p21 promoter (FIG. 10D) were used for a ChIP assay in Panc-28 cells (FIG. 10E) treated with DMSO, 5 μM BA, 5 μM CN-BA, and 5 μM CN-BA-Me for 1 or 2 hr. Analysis of interactions of Sp1 and PPARγ with the p21 promoter were carried out in the ChIP assay as described. The ChIP assay was also used to examine binding of TFIIB to the GAPDH promoter (positive control) (FIG. 10F) and to exon 1 of CNAP1 (negative control).
The ligand-dependent recruitment of PPARγ to the p21 promoter by CN-BA and CN-BA-Me was examined using a ChIP assay of Panc-28 cells treated with the betulinic acid, CN-BA and CN-BA-Me for 1 or 2 hr. […] This is consistent with receptor-independent activation of p21 by betulinic acid and the mechanism of this response is currently being investigated. As a control for this experiment, transcription factor TFIIb bound to the proximal region of the GAPDH gene promoter but not to exon-1 of the CNAP1 gene.

PPARγ-GAL4 chimera = PPARγ-GAL4 chimera activation (FIG. 13C); type: cell-based
[1] = system: Miapaca-2 pancreatic cancer cells; assay: Western blot of Sp proteins in Miapaca-2 cells; type: cell-based; conditions: Miapaca-2, 24 hr
Description: (§2) RKO colon cancer cells were treated with BA/CN-BA for 24 hr (FIG. 15A) or 48 hr (FIG. 15B) and Miapaca-2 pancreatic cancer cells were treated with BA/CN-BA for 24 hr (FIG. 15C). Whole cell lysates were examined by Western blot analysis.

RKO colon cancer cells = assay: Western blot of proapoptotic responses and Sp proteins in RKO cells; type: cell-based
Description: RKO cells were […] with BA or CN-BA for 24 hr and whole cell lysates were examined by Western blot analysis.
as §2

SK-MEL2 melanoma cells = assay: Cell proliferation (cell counting), SK-MEL2 melanoma cells; type: cell-based; conditions: Homo sapiens, SK-MEL-2, 144 h; SK-MEL2, 6 days; read-out: 6-day IC50 values for growth inhibition
Description: (§3) Human carcinoma cell lines LNCaP (prostate) and SK-MEL2 (melanoma) were obtained from American Type Culture Collection (Manassas, Va.). Cell lines were maintained in RPMI 1640 (Sigma) supplemented with 0.22% sodium bicarbonate, 0.011% sodium pyruvate, 0.45% glucose, 0.24% HEPES, 10% FBS, and 10 mL/L of 100× Antibiotic Antimycotic solution (Sigma). Cells were maintained at 37° C. in the presence of 5% CO2.
Prostate and melanoma cancer cells (2×10^4 per well) were plated in 12-well plates and allowed to attach for 24 hr. The medium was then changed to DMEM:Ham's F-12 medium containing 2.5% charcoal-stripped FBS and either vehicle (DMSO) or different concentrations of the compound were added. […] Each experiment was done in triplicate and results are expressed as means±SE for each set of experiments.

LNCaP cells = assay: Western blot analysis of protein expression in LNCaP cells; type: cell-based, Human
Description: as §3
An equal amount of cell lysate (60 μg/well) was separated by 7.5% to 12% SDS-PAGE, which was followed by immunoblotting onto polyvinylidene difluoride (Bio-Rad, Hercules, Calif.). After blocking in TBST-Blotto (10 mmol/L Tris-HCl, 150 mmol/L NaCl (pH 8.0), 0.05% Triton X-100, 5% nonfat dry milk) for 30 min, the membranes were incubated with primary antibodies overnight at 4° C. and then with horseradish peroxidase-conjugated secondary antibody for 2 hr at room temperature. Proteins were visualized using the chemiluminescence substrate (Perkin-Elmer Life Sciences) for 1 min and exposed to Kodak X-OMAT AR autoradiography film (Eastman Kodak, Rochester, N.Y.).

Compound: COC(=O)C12CCC(C(C)C)C1C1CCC3C4(C)C=C(C#N)C(=O)C(C)(C)C4CCC3(C)C1(C)CC2 (stereo not shown) [CN-BA-Me, Methyl 2-cyano-lup-1-en-3-oxo-20-oate]
caveolin-1 induction (SW480 cells): did not induce caveolin-1 expression
caveolin-1 protein level (SW480 cells): decreased expression
caveolin-1 induction (HT-29 cells): induce caveolin-1
effect of T007 on induced caveolin-1 response (HT-29 cells): inhibition of the induced caveolin-1 response
Sp1 binding to p21 promoter (p21 promoter): enhanced binding of Sp1
recruitment of PPARγ to proximal GC-rich region of p21 promoter (p21 promoter): recruited PPARγ

Compound: CC(C)C1CCC2(C(=O)O)CCC3(C)C(CCC4C5(C)C=C(C#N)C(=O)C(C)(C)C5CCC43C)C12 (stereo not shown) [CN-BA]
caveolin-1 induction (SW480 cells): did not induce caveolin-1 expression
caveolin-1 protein level (SW480 cells): decreased expression
activation of PPARγ-GAL4 chimera (PPARγ-GAL4 chimera): activates
caveolin-1 induction (HT-29 cells): induce caveolin-1
effect of T007 on induced caveolin-1 response (HT-29 cells): inhibition of the induced caveolin-1 response
Sp protein expression [1]: decrease Sp protein expression
Sp1 binding to p21 promoter (p21 promoter): enhanced binding of Sp1
recruitment of PPARγ to proximal GC-rich region of p21 promoter (p21 promoter): recruited PPARγ
Sp protein expression (RKO colon cancer cells; 24 and 48 hr): decrease Sp protein expression
ATF3, JNK phosphorylation, CHOP and DR5 (RKO colon cancer cells; 24 hours): activate
proapoptotic responses (RKO colon cancer cells; 24 hours): activate proapoptotic responses

pIC50 (SK-MEL2 melanoma cells): 5.00 to 5.30
Compound: C=C(C)[C@@H]1CC[C@]2(C(=O)O)CC[C@]3(C)[C@H](CC[C@@H]4[C@@]5(C)CC[C@H](O)C(C)(C)[C@@H]5CC[C@]43C)[C@@H]12 [betulinic acid, Betulinic acid]
activation of PPARγ-GAL4 chimera (PPARγ-GAL4 chimera): inactive
concentrations inducing tumor suppressor gene KLF6 (LNCaP cells): 10 to 15 µM
treatment time at which lower expression of Sp proteins is first observed (LNCaP cells; 15 μM): 12 h
lowest doses at which Sp protein degradation and PARP cleavage are observed (LNCaP cells; 48 or 72 hr): 1 to 2.5 µM
concentration inducing downregulation of Sp1, Sp3 and Sp4 proteins (LNCaP cells; 24 hr): 5 to 10 µM
concentration inducing downregulation of cyclin D1 (LNCaP cells; 24 hr exposure): ≥ 10 µM
concentrations decreasing Sp proteins (RKO colon cancer cells; 48 hr): 1 to 5 µM

— patent US20090203661A1, “Betulinic acid, derivatives and analogs thereof and uses therefor” (priority 2006, published 2009)
